Target: T1, GPR158 (Homo sapiens, UniProt Q5T848)
T1 sequence (Q5T848 24-1215): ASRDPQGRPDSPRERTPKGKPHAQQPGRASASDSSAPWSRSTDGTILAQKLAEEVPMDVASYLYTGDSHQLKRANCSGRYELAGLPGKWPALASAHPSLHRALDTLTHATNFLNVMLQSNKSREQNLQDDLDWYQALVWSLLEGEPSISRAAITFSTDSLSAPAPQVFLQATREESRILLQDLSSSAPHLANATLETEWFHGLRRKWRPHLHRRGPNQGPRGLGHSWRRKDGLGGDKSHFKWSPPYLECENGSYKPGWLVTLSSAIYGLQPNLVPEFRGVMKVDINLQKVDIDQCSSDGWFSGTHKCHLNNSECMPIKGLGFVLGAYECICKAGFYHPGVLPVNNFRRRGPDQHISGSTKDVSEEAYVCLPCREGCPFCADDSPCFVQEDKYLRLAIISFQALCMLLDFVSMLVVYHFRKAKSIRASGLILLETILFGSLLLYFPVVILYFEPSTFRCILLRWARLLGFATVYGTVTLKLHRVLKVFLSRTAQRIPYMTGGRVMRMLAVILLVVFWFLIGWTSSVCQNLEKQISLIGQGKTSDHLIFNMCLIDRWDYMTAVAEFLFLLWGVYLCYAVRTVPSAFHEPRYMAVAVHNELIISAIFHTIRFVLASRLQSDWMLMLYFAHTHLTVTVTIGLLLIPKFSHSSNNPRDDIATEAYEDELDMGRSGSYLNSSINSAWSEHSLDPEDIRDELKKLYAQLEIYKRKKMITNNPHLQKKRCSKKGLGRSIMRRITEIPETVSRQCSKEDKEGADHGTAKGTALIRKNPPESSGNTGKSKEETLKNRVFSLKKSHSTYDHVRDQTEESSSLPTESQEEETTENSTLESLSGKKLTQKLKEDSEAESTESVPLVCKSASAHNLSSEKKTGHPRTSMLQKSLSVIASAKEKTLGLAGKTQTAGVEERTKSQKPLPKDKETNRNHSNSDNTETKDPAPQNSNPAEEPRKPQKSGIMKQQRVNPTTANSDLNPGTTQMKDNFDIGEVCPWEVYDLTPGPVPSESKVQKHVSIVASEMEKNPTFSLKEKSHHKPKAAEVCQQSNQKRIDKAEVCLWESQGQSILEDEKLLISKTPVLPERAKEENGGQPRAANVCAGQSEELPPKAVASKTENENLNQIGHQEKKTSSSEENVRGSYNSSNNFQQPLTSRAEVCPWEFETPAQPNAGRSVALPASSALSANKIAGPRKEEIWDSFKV
Experiment: Membrane radioligand saturation binding (Scatchard)
Design: expressed in transfected cells; host or cells: HEK293FT
Conditions: for Kd: Scatchard plot, HEK293 membranes expressing GPR158, n=4
Method: FIGS. 9A-9H. Direct interaction of glycine with GPR158 A) Schematics of assay design for detecting glycine binding to GPR158 by flow cytometry. Cells transfected with GPR158 are incubated with FITC-glycine and fluorescence labeling of cells is detected by flow cytometry. B) Representative flow cytometry histogram showing distribution of cellular populations after sorting. C) Quantification of FITC-glycine binding detected in flow cytometry binding experiments. The median of fluorescence (MFI) is quantified and plotted. Error bars are s.e.m. values, N=3, **p<0.01, ****p<0.0001, two-way ANOVA. D) Schematics of the radioligand binding assay. E) Quantification of ^3H-glycine binding to membrane expressing GPR158. Count Per minute (CPM) are measured and plotted. Data shown mean of 4 independent experiments error bars are s.e.m. values, n=4. […] Data shown mean of 4 independent experiments error bars are s.e.m. values, n=4. […] Control (thick line), GPR158 (thin line) I) Quantification of binding determined by fitting the integrated isotherm to an independent binding model.
Next, the inventors performed radioligand binding assays examining binding of [^3H]-labeled glycine to HEK293 cells expressing GPR158 (FIG. 7A). […] The inventors detected saturable [^3H]-glycine binding to membranes containing GPR158 is substantial excess over linear non-specific binding to membranes devoid of GPR158 (FIG. 9E). […]
Membrane binding assay was conducted using HEK293FT cells cultured in 6 well plates at the density of 10^6 per well and transfected with 2 μg of cDNA of GPR158 or empty pcDNA3.1+ for ctrl cells using Metafectene Pro. […] Finally, each filter was incubated in 5 ml of scintillation cocktail (Ecoscint XR, National Diagnostics), homogenized and radioactivity were measured using the liquid scintillation counter Hidex 600SL. The saturation binding curve, Scatchard plots and affinity KD and Bmax constants were calculated using Graphpad Prism 9.0 by fitting a non-linear regression binding saturation curve. […]

`NCC(=O)O` [^3H-glycine, [^3H]-glycine] was tested, and the Kd was 2620 ± 1820 nM and the “binding to membranes containing GPR158” value (excess over linear non-specific binding to membranes devoid of GPR158) was “saturable”.
`NCC(=O)O` [glycine] was tested, and the Kd was ~3000 nM.

— patent US20260376293A1, “METHODS FOR STUDYING GPR158 PHARMACOLOGY AND IDENTIFICATION OF ITS LIGANDS” (UNIVERSITY OF FLORIDA RESEARCH FOUNDATION, INCORPORATED, priority 2022, published 2026)
